The results in this text go back to US8658800B2 (priority 2010, dated 2014).

Data set [1] is described as follows: logP by HPLC on reversed-phase columns (C 18), EEC Directive 79/831 Annex V.A8. Format: physicochemical. The settings on record: reversed-phase C18 HPLC column; HPLC, reversed-phase C 18, acidic range pH 2.7, 0.1% aqueous formic acid/acetonitrile; read-out: log P. As for the experimental part:
The logP values reported in the table above and in the Preparation Examples were determined in accordance with EEC Directive 79/831 Annex V.A8 by HPLC (High Performance Liquid Chromatography) on reversed-phase columns (C 18), with the following methods:
The LC-MS determination in the acidic range is carried out at pH 2.7 using the mobile phases 0.1% aqueous formic acid and acetonitrile (contains 0.1% formic acid), linear gradient from 10% acetonitrile to 95% acetonitrile
Calibration was carried out using unbranched alkan-2-ones (having from 3 to 16 carbon atoms) with known logP values (the logP values were determined by the retention times using linear interpolation between two successive alkanones).

Another data set relates to Boophilus microplus. Description: Boophilus microplus test (BOOPMI injection). Format: in vivo. The settings on record: 10 μg/animal, injection into the abdomen, after 7 days. The method, then:
Boophilus microplus Test (BOOPMI Injection)
(§1) Solvent: dimethyl sulphoxide
To produce a suitable preparation of active compound, 10 mg of active compound are mixed with 0.5 ml of solvent and the concentrate is diluted with solvent to the desired concentration.
The active compound solution is injected into the abdomen (Boophilus microplus), and the animals are transferred into dishes and stored in a climate-controlled room. The activity is assessed by […] of fertile eggs.
After 7 days, the effect in % is determined 100% means that none of the ticks has laid any fertile eggs.

Another data set deals with Lucilia cuprina larvae. Kind of data set: Lucilia cuprina test (LUCICU). Format: in vivo. As to conditions: 100 ppm, treated horse meat, after 2 days. The method, then:
Lucilia cuprina Test (LUCICU)
as §1
(§2) To produce a suitable preparation of active compound, 10 mg of active compound are mixed with 0.5 ml of dimethyl sulphoxide and the concentrate is diluted with water to the desired concentration.
Vessels containing horse meat treated with the active compound of the desired concentration are populated with about 20 Lucilia cuprina larvae.
After 2 days, the kill in % is determined 100% means that all of the larvae have been killed; 0% means that none of the larvae have been killed.

The next data set has as its system adult Musca domestica. Description: Musca domestica test (MUSCDO). Format: in vivo. As to conditions: treated sponge, after 2 days. As for the experimental part: Musca domestica Test (MUSCDO)
as §1, §2
Vessels containing a sponge treated with the active compound preparation of the desired concentration are populated with adult Musca domestica.
After 2 days, the kill in % is determined 100% means that all of the flies have been killed; 0% means that none of the flies have been killed.

Data set [2] relates to caterpillars of the armyworm (Spodoptera frugiperda). Description: Spodoptera frugiperda test (SPODFR spray treatment). In kind it is in vivo. The settings on record: foliar, 168 h, sprayed maize leaf discs, after 7 days, read-out: activity (kill of caterpillars). The method, then:
Spodoptera frugiperda Test (SPODFR Spray Treatment)
Solvents: 78.0 parts by weight of acetone
(§3) • 1.5 parts by weight of dimethylformamide Emulsifier: 0.5 part by weight of alkylaryl polyglycol ether
(§4) To produce a suitable preparation of active compound, 1 part by weight of active compound is mixed with the stated amount of solvents and emulsifier, and the concentrate is diluted with emulsifier-containing water to the desired concentration.
Discs of maize leaves (Zea mays) are sprayed with an active compound preparation of the desired concentration and, after drying, populated with caterpillars of the armyworm (Spodoptera frugiperda).
After 7 days, the effect in % is determined. 100% means that all caterpillars have been killed; 0% means that none of the caterpillars have been killed.

For data set [3], the system named is larvae of the mustard beetle (Phaedon cochleariae). Kind of data set: Phaedon test (PHAECO spray treatment). In kind it is in vivo. As to conditions: 168 h, sprayed Chinese cabbage discs, after 7 days, read-out: activity (kill of beetle larvae). The method, then: Phaedon Test ([…] Spray Treatment) Solvents: 78.0 parts by weight of acetone • • 1.5 parts by weight of dimethylformamide Emulsifier: 0.5 part by weight of alkylaryl polyglycol ether To produce a suitable preparation of active compound, 1 part by weight of active compound is mixed with the stated amount of solvents and emulsifier, and the concentrate is diluted with emulsifier-containing water to the desired concentration. Discs of Chinese cabbage (Brassica pekinensis) are sprayed with an active compound preparation of the desired concentration and, after drying, populated with larvae of the mustard beetle (Phaedon cochleariae).

The subject of data set [4] is green peach aphid (Myzus persicae). Description: Myzus test (MYZUPE spray treatment). In kind it is in vivo. As to conditions: 144 h, sprayed Chinese cabbage discs, after 6 days, read-out: activity (kill of aphids). The method, then:
Myzus Test (MYZUPE Spray Treatment)
Solvents: 78 parts by weight of acetone
as §3, §4
Discs of Chinese cabbage (Brassica pekinensis) infested by all stages of the green peach aphid (Myzus persicae) are sprayed with an active compound preparation of the desired concentration.
After 6 days, the effect in % is determined. 100% means that all of the aphids have been killed; 0% means that none of the aphids have been killed.

For the molecule `Cc1cc(Cl)cc(C(=S)NC(C)(C)C)c1NC(=O)c1cc(Cn2nnc(C(F)(F)F)n2)nn1-c1ncccc1Cl` [Compound 6], the chromatographic logP in data set [1] worked out at 4.33. In addition, the “activity (100% = none of the ticks has laid any fertile eggs)” value with Boophilus microplus came out at 100%. In addition, the “efficacy (kill)” value stood at 100% with Lucilia cuprina larvae and 90% in the data set on adult Musca domestica (100 ppm). Further, the pest or weed control at 100 g/ha in data set [2] and in data set [3] was 100% in each case.

Take `CNC(=S)c1cc(Cl)cc(C)c1NC(=O)c1cc(Cn2nnc(C(F)(F)F)n2)nn1-c1ncccc1Cl` [Compound 7]: in data set [1], the chromatographic logP came to 3.42. In the data set with Boophilus microplus, the “activity (100% = none of the ticks has laid any fertile eggs)” value came out at 100%. Also, the “efficacy (kill)” value with Lucilia cuprina larvae is listed as 100%; in the data set on adult Musca domestica (20 ppm) it was 90%. The pest or weed control at 100 g/ha in data set [2], in data set [3] and in data set [4] was 100% in each case.

As for `Cc1cc(C#N)cc(OC(F)F)c1NC(=O)c1cc(Cn2nnc(C(F)(F)F)n2)nn1-c1ncccc1Cl` [Compound 9], the chromatographic logP in data set [1] came to 2.85. Besides, the “efficacy (kill)” value in the data set on Lucilia cuprina larvae was 100%; in the data set on adult Musca domestica (100 ppm), 80%. Besides, the pest or weed control at 100 g/ha in data set [2] is 100%; in data set [3] it was 100%; in data set [4], 90%.

Turning to `O=C(O)c1cc(Cl)cc(Cl)c1NC(=O)c1cc(Cn2cnc(C(F)F)n2)nn1-c1ncccc1Cl` [Compound 12], the chromatographic logP in data set [1] turned out to be 2.2. Besides, the “efficacy (kill)” value with Lucilia cuprina larvae turned out to be 90%. The pest or weed control at 500 g/ha in data set [2] (500 g/ha) and in data set [3] (500 g/ha) was 100% throughout.
